Measured values as given in ChEMBL document CHEMBL1132457 (J Med Chem, 1999).

Key:
[1] = target: T1, Adenosine receptor A2a (Homo sapiens, UniProt P29274); assay: Displacement of specific [3H]-SCH- 58261 binding at human Adenosine A2A receptor expressed in HEK293 cells; format: cell-based
[2] = system: HEK293; assay: Ratio of binding affinity for rat adenosine A1 and human adenosine A3 receptors expressed in HEK293 cells; format: cell-based
[3] = target: T2, Adenosine receptor A3 (Homo sapiens) (UniProt P0DMS8); assay: Percent inhibition of cAMP-accumulation in CHO cells by IB-MECA at 1 uM; format: functional, cell-based
T2 sequence (whole entry): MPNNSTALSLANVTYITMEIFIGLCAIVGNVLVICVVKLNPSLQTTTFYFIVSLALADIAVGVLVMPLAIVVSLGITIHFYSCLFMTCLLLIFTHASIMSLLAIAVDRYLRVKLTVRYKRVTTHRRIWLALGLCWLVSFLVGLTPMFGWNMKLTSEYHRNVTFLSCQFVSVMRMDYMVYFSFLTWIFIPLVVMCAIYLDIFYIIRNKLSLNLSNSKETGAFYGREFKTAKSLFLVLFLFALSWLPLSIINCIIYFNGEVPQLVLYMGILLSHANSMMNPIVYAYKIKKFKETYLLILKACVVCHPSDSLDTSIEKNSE

[4] = target: T3, Adenosine receptor A1 (Homo sapiens, UniProt P30542); assay: Displacement of [3H]DPCPX from human Adenosine A1 receptor expressed in CHO cells; format: cell-based
T3 sequence (P30542 whole entry): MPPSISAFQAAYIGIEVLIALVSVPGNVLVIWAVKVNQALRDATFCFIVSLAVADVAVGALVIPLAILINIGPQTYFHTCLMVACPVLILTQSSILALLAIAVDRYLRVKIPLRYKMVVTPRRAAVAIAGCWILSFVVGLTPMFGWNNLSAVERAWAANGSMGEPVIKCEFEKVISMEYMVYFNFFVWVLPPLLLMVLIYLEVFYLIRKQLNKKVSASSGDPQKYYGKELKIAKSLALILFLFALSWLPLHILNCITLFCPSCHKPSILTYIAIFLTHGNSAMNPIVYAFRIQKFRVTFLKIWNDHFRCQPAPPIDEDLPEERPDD

[5] = target: T4, Adenosine receptor A3 (Rattus norvegicus) (UniProt P28647); format: cell-based; conditions: CHO, 10 mM
T4 sequence (whole entry): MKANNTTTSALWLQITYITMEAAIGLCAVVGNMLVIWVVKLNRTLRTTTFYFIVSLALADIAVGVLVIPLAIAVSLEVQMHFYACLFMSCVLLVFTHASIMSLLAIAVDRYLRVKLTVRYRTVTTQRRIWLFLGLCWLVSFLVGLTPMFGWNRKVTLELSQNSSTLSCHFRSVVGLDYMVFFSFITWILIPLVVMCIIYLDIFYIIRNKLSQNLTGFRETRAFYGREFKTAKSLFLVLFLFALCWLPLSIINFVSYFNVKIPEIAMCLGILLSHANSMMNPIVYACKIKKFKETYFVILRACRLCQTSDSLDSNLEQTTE

[6] = system: HEK293; assay: Ratio of binding affinity for rat adenosine A2A of striatal membranes and human adenosine A3 receptors expressed in HEK293 cells; format: cell-based
[7] = target: T5, Adenosine receptor A3 (Homo sapiens, UniProt P0DMS8); assay: Inhibitory concentration as antagonistic activity against cAMP generation inhibited by IB-MECA in CHO cell membranes transfected with human Adenosine A3 receptor; format: functional, cell-based
T5 sequence (P0DMS8 whole entry): T2 sequence (whole entry)

[8] = target: Adenosine receptors; A1 & A3 (Homo sapiens) (UniProt P30542+P0DMS8); assay: Ratio of binding affinity for human adenosine A1 and A3 receptors expressed in HEK293 cells; format: cell-based
[9] = target: T2, Adenosine receptor A3 (Homo sapiens); assay: Percent inhibition of cAMP-accumulation in CHO cells by IB-MECA at 1 uM.; format: functional, cell-based
[10] = target: T2, Adenosine receptor A3 (Homo sapiens); conditions: CHO, 1 uM
Description: Perent inhibition of cAMP-accumulation in CHO cells expressing human Adenosine A3 receptor by IB-MECA at 1 uM.

[11] = target: T2, Adenosine receptor A3 (Homo sapiens); conditions: CHO, 1 uM; remark: listed apart in the source
Description: Percent inhibition of cAMP-accumulation in CHO cells expressing hA3 adenosine receptors by IB-MECA at 1 uM.

[12] = target: T6, Adenosine receptor A1 (Rattus norvegicus, UniProt P25099); assay: Displacement of [3H]DPCPX from Adenosine A1 receptor of rat brain membranes; format: cell membranes, Membrane
T6 sequence (P25099 whole entry): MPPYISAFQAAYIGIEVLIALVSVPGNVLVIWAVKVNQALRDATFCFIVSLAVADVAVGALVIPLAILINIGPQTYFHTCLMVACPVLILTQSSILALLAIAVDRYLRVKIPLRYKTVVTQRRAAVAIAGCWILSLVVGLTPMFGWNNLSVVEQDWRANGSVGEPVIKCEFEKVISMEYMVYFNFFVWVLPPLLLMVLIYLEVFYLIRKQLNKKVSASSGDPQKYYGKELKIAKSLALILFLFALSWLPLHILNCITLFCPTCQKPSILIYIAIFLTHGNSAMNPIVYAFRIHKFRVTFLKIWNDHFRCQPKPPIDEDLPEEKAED

[13] = target: T5, Adenosine receptor A3; assay: Inhibitory concentration as antagonistic activity against cAMP generation inhibited by IB-MECA in CHO cell membranes transfected with human A3 receptor; format: functional, cell-based
[14] = target: Adenosine receptor A2a (Rattus norvegicus, UniProt P30543)
Adenosine receptor A2a (Rattus norvegicus, UniProt P30543), sequence (P30543 whole entry): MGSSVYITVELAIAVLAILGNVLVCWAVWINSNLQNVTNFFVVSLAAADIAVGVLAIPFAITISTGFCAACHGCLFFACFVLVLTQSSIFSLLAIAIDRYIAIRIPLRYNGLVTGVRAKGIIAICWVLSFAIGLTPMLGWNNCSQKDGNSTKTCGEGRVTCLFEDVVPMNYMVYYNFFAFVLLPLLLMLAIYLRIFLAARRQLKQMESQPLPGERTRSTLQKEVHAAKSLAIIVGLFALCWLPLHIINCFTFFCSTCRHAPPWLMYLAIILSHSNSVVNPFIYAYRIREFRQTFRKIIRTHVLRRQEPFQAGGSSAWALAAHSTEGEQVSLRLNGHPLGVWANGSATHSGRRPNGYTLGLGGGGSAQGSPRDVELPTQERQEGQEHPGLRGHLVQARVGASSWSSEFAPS
Description: Displacement of [3H]-SCH- 58261 from Adenosine A2A receptor in rat striatal membranes

[15] = target: T1, Adenosine receptor A2a; assay: Displacement of [3H]-SCH- 58261 from human Adenosine A2A receptor expressed in HEK293 cells; format: cell-based

T1 sequence (P29274 whole entry): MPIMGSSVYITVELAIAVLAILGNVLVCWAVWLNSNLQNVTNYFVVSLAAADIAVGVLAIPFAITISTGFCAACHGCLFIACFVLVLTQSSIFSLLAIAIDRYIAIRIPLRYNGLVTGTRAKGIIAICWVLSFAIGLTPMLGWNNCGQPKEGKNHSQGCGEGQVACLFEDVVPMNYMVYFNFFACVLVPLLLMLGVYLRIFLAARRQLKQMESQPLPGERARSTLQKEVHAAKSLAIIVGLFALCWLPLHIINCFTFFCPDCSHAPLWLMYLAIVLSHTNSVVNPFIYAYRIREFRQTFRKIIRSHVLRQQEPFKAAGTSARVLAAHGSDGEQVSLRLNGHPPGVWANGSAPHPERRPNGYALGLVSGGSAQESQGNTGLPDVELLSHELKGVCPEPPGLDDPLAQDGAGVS

O=C(Nc1cccc(Cl)c1)Nc1nc2nn(CCCc3ccccc3)cc2c2nc(-c3ccco3)nn12
Ki [1]: 0.202 µM | Ratio [2]: > 234 | inhibition [3]: 50% | Ki [4]: 1.5 µM | inhibition [5]: 20% | Ratio [6]: 75

CCCn1cc2c(nc(N)n3nc(-c4ccco4)nc23)n1
IC50 [7]: 0.0402 µM | Ki [1]: 0.00255 µM | Ratio [8]: 0.016 | Ratio [2]: 0.22 | Ki [4]: 0.01 µM | inhibition [5]: 2% | Ratio [6]: 0.03

Nc1nc2nn(CCCc3ccccc3)cc2c2nc(-c3ccco3)nn12
Ki [1]: 0.00018 µM | Ratio [8]: 0.001 | Ratio [2]: 0.004 | Ki [4]: 0.003 µM | inhibition [5]: 32% | inhibition [9]: 6% | Ratio [6]: 0.0002

CCn1cc2c(nc(N)n3nc(-c4ccco4)nc23)n1
Ki [1]: 0.0019 µM | Ratio [8]: 0.0014 | Ratio [2]: 0.03 | Ki [4]: 0.005 µM | inhibition [5]: 1% | inhibition [9]: 3% | Ratio [6]: 0.003

CCCn1cc2c(nc(NC(=O)Nc3ccc(OC)cc3)n3nc(-c4ccco4)nc23)n1
inhibition [10]: 89% | inhibition [5]: 37%

CCn1cc2c(nc(NC(=O)Nc3ccc(OC)cc3)n3nc(-c4ccco4)nc23)n1
inhibition [11]: 88% | Ki [12]: > 10 µM | IC50 [13]: 0.0065 µM | inhibition [5]: 39% | Ki [14]: > 10 µM

CCCn1cc2c(nc(NC(=O)Nc3cccc(Cl)c3)n3nc(-c4ccco4)nc23)n1
inhibition [11]: 87% | Ki [4]: 0.03 µM | IC50 [13]: 0.0053 µM | inhibition [5]: 20% | Ki [14]: > 10 µM | Ki [15]: 1.22 µM

Nc1nc2nn(CCc3ccccc3)cc2c2nc(-c3ccco3)nn12
Ki [1]: 0.00031 µM | Ki [4]: 0.001 µM | inhibition [5]: 12% | inhibition [9]: 5%

CCn1cc2c(nc(NC(=O)Nc3cccc(Cl)c3)n3nc(-c4ccco4)nc23)n1
IC50 [7]: 0.0151 µM | Ki [1]: 0.185 µM | inhibition [11]: 71% | Ki [4]: 0.249 µM | inhibition [5]: 36%

COc1ccc(NC(=O)Nc2nc3nn(CCCc4ccccc4)cc3c3nc(-c4ccco4)nn23)cc1
Ki [1]: 1.02 µM | Ratio [8]: 12.6 | Ratio [2]: 76.4 | Ki [4]: 0.251 µM | inhibition [5]: 11% | inhibition [9]: 56% | Ratio [6]: > 504

O=C(Nc1cccc(Cl)c1)Nc1nc2nn(CCc3ccccc3)cc2c2nc(-c3ccco3)nn12
Ki [1]: 0.11 µM | Ratio [8]: 19 | Ratio [2]: 79 | Ki [4]: 0.251 µM | inhibition [5]: 30% | inhibition [9]: 62% | Ratio [6]: 128

COc1ccc(NC(=O)Nc2nc3nn(CCc4ccccc4)cc3c3nc(-c4ccco4)nn23)cc1
Ki [1]: 0.124 µM | Ratio [8]: 136 | Ratio [2]: 872 | Ki [4]: 0.201 µM | IC50 [13]: 0.0124 µM | inhibition [5]: 37% | inhibition [9]: 81% | Ratio [6]: 951
